According to the SangsterLogP compilation:

Experiments:
[1] = method code SF-AS, from DOI: 10.1081/jlc-120027619
[2] = method code RP-HPLC, from DOI: 10.1081/jlc-120027619; conditions: pH 3.1

SMILES	logD [2]	logP [1]
Cc1cccc2c3c(ccc12)C1=C(C(=O)C3=O)[C@@H](C)CO1		3.14
Cc1coc2c1C(=O)C(=O)c1c-2ccc2c1CCCC2(C)C	5.4	
C[C@H]1COC2=C1C(=O)C(=O)c1c2ccc2c1CCCC2(C)C	4.72	
O=C(O)c1cc(O)c2c(c1)C(=O)c1cccc(O)c1C2=O	3.68	
O=C(O)C(O)Cc1ccc(O)c(O)c1 (configuration not stated)	0.11	
O=c1c(-c2ccc(O)cc2)coc2c([C@@H]3O[C@H](CO)[C@@H](O)[C@H](O)[C@H]3O)c(O)ccc12	1.34	
O=Cc1ccc(O)c(O)c1	0.82	
Cc1coc2c1C(=O)C(=O)c1c-2ccc2c(C)cccc12	4.65	

More lines, main results first:

logD [2]	SMILES	logP [1]
4.93	COc1cc(O)c2c(c1)C(=O)c1cc(C)cc(O)c1C2=O	
3.18	O=C1c2cccc(O)c2C(=O)c2c(O)cc(CO)cc21	
4.48	Cc1cc(O)c2c(c1)C(=O)c1cc(O)cc(O)c1C2=O	
4.39	Cc1cc(O)c2c(c1)C(=O)c1cccc(O)c1C2=O	
